Test results as given in US20240417439A1, “RECOMBINANT POLYPEPTIDE FOR DISRUPTING INTERACTION OF EAG2 AND KVß2 AND THERAPEUTIC APPLICATIONS THEREOF IN CANCER TREATMENT” (The Hospital for Sick Children, priority 2021, published 2024).
Non-standard residues stand in square brackets, D forms with d. No end group written: not given here.

T1: EAG2, endogenous, mouse whole brain (mouse, UniProt Q920E3 1-988)
T1 sequence (looked up): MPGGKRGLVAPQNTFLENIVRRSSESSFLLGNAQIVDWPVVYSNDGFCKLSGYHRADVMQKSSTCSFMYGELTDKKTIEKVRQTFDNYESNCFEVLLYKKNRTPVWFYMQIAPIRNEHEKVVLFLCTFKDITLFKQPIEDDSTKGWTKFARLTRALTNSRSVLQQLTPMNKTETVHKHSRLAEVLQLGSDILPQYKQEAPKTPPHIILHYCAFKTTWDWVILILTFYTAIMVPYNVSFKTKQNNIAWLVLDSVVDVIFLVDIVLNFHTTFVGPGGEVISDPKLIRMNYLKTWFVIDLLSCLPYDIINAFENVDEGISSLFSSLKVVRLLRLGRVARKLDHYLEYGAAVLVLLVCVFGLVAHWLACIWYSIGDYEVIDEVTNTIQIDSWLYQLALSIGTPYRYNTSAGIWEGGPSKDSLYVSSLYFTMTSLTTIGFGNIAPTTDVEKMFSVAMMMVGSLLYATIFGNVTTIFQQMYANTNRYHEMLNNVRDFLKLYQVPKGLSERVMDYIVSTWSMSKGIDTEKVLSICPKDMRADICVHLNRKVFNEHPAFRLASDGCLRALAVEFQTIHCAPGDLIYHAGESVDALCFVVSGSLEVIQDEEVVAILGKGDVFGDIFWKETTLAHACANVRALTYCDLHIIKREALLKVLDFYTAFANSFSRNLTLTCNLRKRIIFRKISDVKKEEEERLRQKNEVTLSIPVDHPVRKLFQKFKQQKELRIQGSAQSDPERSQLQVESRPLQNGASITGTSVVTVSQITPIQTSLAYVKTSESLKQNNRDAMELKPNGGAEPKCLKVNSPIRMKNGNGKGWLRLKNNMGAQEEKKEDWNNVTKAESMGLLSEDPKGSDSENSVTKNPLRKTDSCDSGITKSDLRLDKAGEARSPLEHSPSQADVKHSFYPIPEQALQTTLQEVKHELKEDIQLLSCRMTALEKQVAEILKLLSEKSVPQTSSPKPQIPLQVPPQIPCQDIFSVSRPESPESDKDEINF

B1: Kvß2, endogenous, mouse whole brain (other, UniProt P62482 1-367, looked up)
chain: MYPESTTGSPARLSLRQTGSPGMIYSTRYGSPKRQLQFYRNLGKSGLRVSCLGLGTWVTFGGQITDEMAEHLMTLAYDNGINLFDTAEVYAAGKAEVVLGNIIKKKGWRRSSLVITTKIFWGGKAETERGLSRKHIIEGLKASLERLQLEYVDVVFANRPDPNTPMEETVRAMTHVINQGMAMYWGTSRWSSMEIMEAYSVARQFNLIPPICEQAEYHMFQREKVEVQLPELFHKIGVGAMTWSPLACGIVSGKYDSGIPPYSRASLKGYQWLKDKILSEEGRRQQAKLKELQAIAERLGCTLPQLAIAWCLRNEGVSSVLLGASNAEQLMENIGAIQVLPKLSSSIVHEIDSILGNKPYSKKDYRS

Key:
GBM532 cells = assay: cell viability of GBM532 cells following peptide treatment; format: cell-based, human; settings: increasing peptide concentrations
Excerpt: GBM532 cells were exposed to increasing concentrations of various peptide treatments. […] The peptide K59-78^TATwas used as a negative control.

[1] = target: T1, EAG2, endogenous, mouse whole brain; assay: co-IP from lysates of mouse whole brains

| Molecule | cell-killing activity (GBM532 cells) | binding result [1] |
| --- | --- | --- |
| Retro-inverso-DIP: D-amino acids in reverse order: VLSSRRWGKKKIINGLVVEAKGAAYSGSGSGQPRRRQRRKKRG ([dV][dL][dS][dS][dR][dR][dW]G[dK][dK][dK][dI][dI][dN]G[dL][dV][dV][dE][dA][dK]G[dA][dA][dY][dS]G[dS]G[dS]G[dQ][dP][dR][dR][dR][dQ][dR][dR][dK][dK][dR]G) | Good cell-killing activity | – |
| B1 | – | no binding |
